For this assay, the system named is 598228-144-R-J1-PDC complex spheroid viability. Nature of the assay: Anticancer human tumor 598228-144-R-J1-PDC patient-derived serous endometrial adenocarcinoma cell line growth inhibition [GQUAD]. As to conditions: for viability, T/C: stronger effect = lower value. Summed up:
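Multi-cell-type spheroids of tumor cells with HUVEC and mesenchymal stem cells, treated with drug combinations. Concentrations descend in half-log steps from near clinical Cmax, or from 10 microM where Cmax is unknown; viability read-out.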

The mark [1] stands for this setting: curve of first compound, second compound 0.0316 µM.
Where [2] appears, read: curve of first compound, second compound 0.1 µM.
The mark [3] stands for this setting: curve of first compound, second compound 0.316 µM.
[4] abbreviates: curve of first compound, second compound 1 µM.
The mark [5] stands for this setting: curve of first compound, second compound 3.16 µM.
The mark [6] stands for this setting: curve of first compound, second compound 10 µM.
[7] abbreviates: second compound 0.0316 µM, first compound 0.0316 µM.
Setting [8] is: second compound 0.0316 µM, first compound 0.1 µM.
Where [9] appears, read: second compound 0.0316 µM, first compound 0.316 µM.
Where [10] appears, read: second compound 0.0316 µM, first compound 1 µM.
Where [11] appears, read: second compound 0.0316 µM, first compound 3.16 µM.
[12] abbreviates: second compound 0.0316 µM, first compound 10 µM.
Where [13] appears, read: second compound 0.1 µM, first compound 0.0316 µM.
The mark [14] stands for this setting: second compound 0.1 µM, first compound 0.1 µM.
The mark [15] stands for this setting: second compound 0.1 µM, first compound 0.316 µM.
Where [16] appears, read: second compound 0.1 µM, first compound 1 µM.
Setting [17] is: second compound 0.1 µM, first compound 3.16 µM.
[18] abbreviates: second compound 0.1 µM, first compound 10 µM.
Where [19] appears, read: second compound 0.316 µM, first compound 0.0316 µM.
Where [20] appears, read: second compound 0.316 µM, first compound 0.1 µM.
Setting [21] is: second compound 0.316 µM, first compound 0.316 µM.
Where [22] appears, read: second compound 0.316 µM, first compound 1 µM.
The mark [23] stands for this setting: second compound 0.316 µM, first compound 3.16 µM.
Where [24] appears, read: second compound 0.316 µM, first compound 10 µM.
[25] abbreviates: second compound 1 µM, first compound 0.0316 µM.
Where [26] appears, read: second compound 1 µM, first compound 0.1 µM.
The mark [27] stands for this setting: second compound 1 µM, first compound 0.316 µM.
[28] abbreviates: second compound 1 µM, first compound 1 µM.
Where [29] appears, read: second compound 1 µM, first compound 3.16 µM.
The mark [30] stands for this setting: second compound 1 µM, first compound 10 µM.
Setting [31] is: second compound 3.16 µM, first compound 0.0316 µM.
[32] abbreviates: second compound 3.16 µM, first compound 0.1 µM.
The mark [33] stands for this setting: second compound 3.16 µM, first compound 0.316 µM.
Setting [34] is: second compound 3.16 µM, first compound 1 µM.
[35] abbreviates: second compound 3.16 µM, first compound 3.16 µM.
Where [36] appears, read: second compound 3.16 µM, first compound 10 µM.
[37] abbreviates: second compound 10 µM, first compound 0.0316 µM.
The mark [38] stands for this setting: second compound 10 µM, first compound 0.1 µM.
The mark [39] stands for this setting: second compound 10 µM, first compound 0.316 µM.
Setting [40] is: second compound 10 µM, first compound 1 µM.
[41] abbreviates: second compound 10 µM, first compound 3.16 µM.
The mark [42] stands for this setting: second compound 10 µM, first compound 10 µM.

Results on 9 compounds are retold here after PubChem BioAssay AID2060506 (Molecular Pharmacology Branch, DTP, NCI, 2025).

Values joined by “and” are separate entries in the source; they are usually repeats but may differ in a detail not shown here. Identical values can stand only once.
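Note: spheroids exposed to the agents for one week before reading.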
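Throughout, for viability, T/C: percent of vehicle DMSO control viability so 100% = untreated growth.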

For the compound `COc1ncnc(C2CC2)c1-c1ncc2cnn(Cc3ccc(-c4nc(C(F)(F)F)cn4C(C)C)cc3)c2n1` + CN(C)c1ccc(Nc2c3ccc(NC(=O)CCN4CCCC4)cc3nc3cc(NC(=O)CCN4CCCC4)ccc23)cc1, the IC50 (as a rule, the point on the concentration scale where inhibition reaches its midpoint) was > 10 µM under setting [1]; > 10 µM under setting [2]; > 10 µM under setting [3]; > 10 µM under setting [4]; > 10 µM under setting [5]; > 10 µM under setting [6]. Besides, the viability, T/C (in general, the result in the treated group divided by that in the control group, in per cent) was 91.3% under setting [7]; 111% under setting [8]; 95.9% under setting [9]; 92.2% under setting [10]; 111% under setting [11]; 89.9% under setting [12]. The viability, T/C reads like this: under setting [13], 105%; under setting [14], 97.9%; under setting [15], 101%; under setting [16], 85.5%; under setting [17], 102%; under setting [18], 110%. Moreover, the viability, T/C under setting [19] is 112%; the viability, T/C under setting [20] was 115%; the viability, T/C under setting [21] was 99%; the viability, T/C under setting [22] was 88.7%; the viability, T/C under setting [23] was 120%; the viability, T/C under setting [24] was 110%. Besides, the viability, T/C is, setting by setting: under setting [25], 112%; under setting [26], 90.6%; under setting [27], 102%; under setting [28], 75.1%; under setting [29], 95.2%; under setting [30], 90.5%. Further, the viability, T/C was 89.8% under setting [31]; 108% under setting [32]; 94.3% under setting [33]; 105% under setting [34]; 90.9% under setting [35]; 91.5% under setting [36]. Moreover, the viability, T/C under setting [37] is 84%; the viability, T/C under setting [38] is 67.8%; the viability, T/C under setting [39] is 72.2%; the viability, T/C under setting [40] was 77.1%; the viability, T/C under setting [41] is 71.1%; the viability, T/C under setting [42] is 51.5%.

For the compound `Cc1[nH]c2ccccc2c1CCNCc1ccc(/C=C/C(=O)NO)cc1`, the viability, T/C was 109% and 102% and 101% (compound 0.000999 µM); 97.9% and 99.4% and 93.7% (compound 0.00316 µM); 108% and 97.5% and 99% (compound 0.00999 µM); 83.5% and 70.5% and 71.7% (compound 0.0316 µM); 27.5% and 29.3% and 38.2% (compound 0.0999 µM); 0.72% and 0.83% and 0.61% (compound 0.316 µM). For the same compound, the IC50 (curve of compound) was 0.0631 µM and 0.0565 µM and 0.0673 µM.

As for `COc1ccc([C@@H](O)c2cc(-c3ncnc4cc(N5CCOCC5)ccc34)c(F)cc2Cl)nn1` + Cc1[nH]c2ccc(F)cc2c1-c1nc2c3cccnc3c3ncccc3c2[nH]1, the IC50 was 3.14 µM under setting [1]; 1.22 µM under setting [2]; 1.29 µM under setting [3]; 0.222 µM under setting [4]; < 0.0316 µM under setting [5]; 0.112 µM under setting [6]. Moreover, the viability, T/C runs as follows: under setting [7], 96.8%; under setting [8], 114%; under setting [9], 87.8%; under setting [10], 76.7%; under setting [11], 50.4%; under setting [12], 29.1%. The viability, T/C under setting [13] was 112%; the viability, T/C under setting [14] was 96%; the viability, T/C under setting [15] was 62.6%; the viability, T/C under setting [16] is 59.5%; the viability, T/C under setting [17] is 35%; the viability, T/C under setting [18] was 26%. Besides, the viability, T/C by setting is: under setting [19], 82.2%; under setting [20], 71.5%; under setting [21], 72.8%; under setting [22], 50.5%; under setting [23], 40.8%; under setting [24], 32.4%. Moreover, the viability, T/C under setting [25] is 64.2%; the viability, T/C under setting [26] is 67.4%; the viability, T/C under setting [27] is 37.4%; the viability, T/C under setting [28] is 36.9%; the viability, T/C under setting [29] was 27.4%; the viability, T/C under setting [30] is 18.8%. In addition, the viability, T/C is 48.3% under setting [31]; 44.9% under setting [32]; 34.1% under setting [33]; 21.1% under setting [34]; 18.9% under setting [35]; 15.2% under setting [36]. The viability, T/C by setting is: under setting [37], 61.5%; under setting [38], 49.6%; under setting [39], 43.9%; under setting [40], 31.1%; under setting [41], 25.6%; under setting [42], 22.5%.

For `Cc1cccc(N(C)C(=O)C2C(O)CCN2c2nc(C)cc(C(F)(F)F)c2C#N)c1` (stereo unspecified), the viability, T/C is, setting by setting: (compound 0.0316 µM) 108% and 89.4% and 98.2%; (compound 0.1 µM) 92.7% and 78% and 99.4%; (compound 0.316 µM) 97.2% and 122% and 88.8%; (compound 1 µM) 99.8% and 91.5% and 99.9%; (compound 3.16 µM) 97.1% and 94.7% and 111%; (compound 10 µM) 93.6% and 88.1% and 102%. For the same compound, the half-maximal inhibitory concentration (IC50) (curve of compound) was > 10 µM.

In the case of `C#Cc1c(F)ccc2cc(O)cc(-c3ncc4c(N5CC6CCC(C5)N6)nc(OCC56CCCN5CC(F)C6)nc4c3F)c12` (stereo unspecified) + Cc1cnc(CNC(=O)c2c(=O)c3ccc(N4CCCN(C)CC4)nc3n3c2sc2ccccc23)cn1, the IC50 is > 10 µM under setting [1]; > 10 µM under setting [2]; > 10 µM under setting [3]; 8.91 µM under setting [4]; 0.0316 µM under setting [5]; < 0.0316 µM under setting [6]. Also, the viability, T/C by setting is: under setting [7], 99.8%; under setting [8], 88.6%; under setting [9], 85.6%; under setting [10], 83.2%; under setting [11], 101%; under setting [12], 81.7%. Moreover, the viability, T/C was 64.3% under setting [13]; 77.7% under setting [14]; 71.6% under setting [15]; 63.7% under setting [16]; 69.7% under setting [17]; 68.7% under setting [18]. Also, the viability, T/C under setting [19] is 75%; the viability, T/C under setting [20] was 58.8%; the viability, T/C under setting [21] is 62.7%; the viability, T/C under setting [22] was 55.4%; the viability, T/C under setting [23] is 69.9%; the viability, T/C under setting [24] is 53.1%. Further, the viability, T/C was 57% under setting [25]; 53.4% under setting [26]; 54% under setting [27]; 58.9% under setting [28]; 52.4% under setting [29]; 46.1% under setting [30]. For the same compound, the viability, T/C under setting [31] was 46.5%; the viability, T/C under setting [32] was 50.9%; the viability, T/C under setting [33] is 46.8%; the viability, T/C under setting [34] was 40.5%; the viability, T/C under setting [35] is 52.2%; the viability, T/C under setting [36] was 27.9%. The viability, T/C under setting [37] is 25.5%; the viability, T/C under setting [38] is 30.3%; the viability, T/C under setting [39] was 20.4%; the viability, T/C under setting [40] was 24.2%; the viability, T/C under setting [41] is 7.19%; the viability, T/C under setting [42] is 0.48%.

As to `CC(C)(O)C1CCC(Nc2ccc3ncc(-c4cccc(C(F)(F)F)c4)n3n2)CC1` (stereo unspecified), the viability, T/C (compound 0.0316 µM) is 112% and 97.2% and 85.6%; the viability, T/C (compound 0.1 µM) was 104% and 82.3% and 99.3%; the viability, T/C (compound 0.316 µM) was 99.6% and 94.8% and 96.7%; the viability, T/C (compound 1 µM) is 94% and 78.5% and 75.3%; the viability, T/C (compound 3.16 µM) was 28% and 26.1% and 20.6%; the viability, T/C (compound 10 µM) was 31.7% and 25.3% and 24.3%. Further, the IC50 (curve of compound) is 2.2 µM and 1.87 µM and 1.73 µM.

As for `C=CCn1c(=O)c2cnc(Nc3ccc(N4CCN(C)CC4)cc3)nc2n1-c1cccc(C(C)(C)O)n1`, the viability, T/C was 105% and 84.5% and 97.9% (compound 0.0316 µM); 81.6% and 94.9% and 101% (compound 0.1 µM); 83% and 52.6% and 63% (compound 0.316 µM); 46.9% and 51.9% and 42% (compound 1 µM); 50.9% and 46.4% and 62.5% (compound 3.16 µM); 45.4% and 49.7% and 66.2% (compound 10 µM).

For the compound `CC(=O)O[C@H]1C(=O)[C@@]2(C)[C@H]([C@H](OC(=O)c3ccccc3)[C@]3(O)C[C@H](OC(=O)[C@H](O)[C@@H](NC(=O)c4ccccc4)c4ccccc4)C(C)=C1C3(C)C)[C@]1(OC(C)=O)CO[C@@H]1C[C@@H]2O`, the viability, T/C runs as follows: (compound 0.0316 µM) 57.9% and 47.5% and 53%; (compound 0.1 µM) 41.1% and 46.1% and 48.6%; (compound 0.316 µM) 52.3% and 37.7% and 45%; (compound 1 µM) 42.3% and 36.8% and 38.9%; (compound 3.16 µM) 47.5% (2×) and 40.5%; (compound 10 µM) 49.1% and 43% and 39.1%. In addition, the IC50 (curve of compound) is 0.0804 µM and < 0.0316 µM and 0.0504 µM.

Take `CN(C)c1ccc(Nc2c3ccc(NC(=O)CCN4CCCC4)cc3nc3cc(NC(=O)CCN4CCCC4)ccc23)cc1`: the viability, T/C (compound 0.0316 µM) was 102% [middle of 12 runs]; the viability, T/C (compound 0.1 µM) is 106% [middle of 12 runs]; the viability, T/C (compound 1 µM) was 101% [middle of 12 runs]; the viability, T/C (compound 3.16 µM) was 99.7% [middle of 12 runs]; the viability, T/C (compound 10 µM) was 90% [middle of 12 runs]. Moreover, the half-inhibitory concentration (IC50) (compound alone, run of 03/26/2024) was > 10 µM.
